For experiment [1], the system named is human ES motor neurons carrying the ALS-causing SOD1^A4V mutation. The experiment in a line: cells. In kind it is cell-based. As to conditions: 72 h, 72 h; for EC50 / Emax: CPA 33 μM; for viability at 1 µM: CPA (33 μM) + compound (1 μM), read-out: Motor Neuron Survival, % untreated; for Emax: read-out: Emax (MN survival % untreated). The protocol: Next, survival assays were performed with all the analogs at once to generate a low-variability dataset. All compounds were evaluated at concentrations ranging from 0.1-3.0 μM (five-point dilution) in three technical replicates and two biological replicates.

Another experiment concerns the target T1, MLK1/MAP3K9 (Homo sapiens, UniProt P80192).
T1 construct: purchased Reaction Biology Corp
The experiment in a line: Radiolabeled ATP kinase assay (Reaction Biology Corp.), MLK1. Format: biochemical. As to conditions: [Cmpd] 0.1 μM, 10 μM ATP. On the procedure:
(§1) Meanwhile, the same analogs were analyzed in a radiolabeled ATP assay (10 μM ATP; Reaction Biology Corp.) to compare the extent to which they could inhibit the activity of HGK, MLK1, or MLK3 in a cell-free environment (Table S3 and S4).

The target of the next experiment is HGK/MAP4K4 (Homo sapiens, UniProt O95819). In words: Radiolabeled ATP kinase assay (Reaction Biology Corp.), HGK. As to conditions: 10 μM ATP, read-out: % Enzyme Activity (relative to DMSO controls), HGK/MAP4K4, Data 1; for remaining activity at 0.025 µM: [Cmpd] 0.025 μM; for remaining activity at 0.1 µM: [Cmpd] 0.1 μM. On the set-up: purchased Reaction Biology Corp. In kind it is biochemical. The protocol: as §1

A further experiment has as its target T2, MLK3/MAP3K11 (Homo sapiens, UniProt Q16584).
T2 construct: purchased Reaction Biology Corp
The experiment in a line: Radiolabeled ATP kinase assay (Reaction Biology Corp.), MLK3. Format: biochemical. Particulars: [Cmpd] 0.1 μM; 10 μM ATP. The protocol:
as §1

The mark [2] stands for this setting: Homo sapiens, Neuron, read-out: EC50.
[3] abbreviates: read-out: % Enzyme Activity Remaining (relative to DMSO controls), MLK1/MAP3K9, Data 1.
Setting [4] is: read-out: % Enzyme Activity Remaining (relative to DMSO controls), MLK1/MAP3K9, Data 2.

Like-named read-outs stand apart in the source and are kept apart here.

T2 sequence (Q16584 whole entry): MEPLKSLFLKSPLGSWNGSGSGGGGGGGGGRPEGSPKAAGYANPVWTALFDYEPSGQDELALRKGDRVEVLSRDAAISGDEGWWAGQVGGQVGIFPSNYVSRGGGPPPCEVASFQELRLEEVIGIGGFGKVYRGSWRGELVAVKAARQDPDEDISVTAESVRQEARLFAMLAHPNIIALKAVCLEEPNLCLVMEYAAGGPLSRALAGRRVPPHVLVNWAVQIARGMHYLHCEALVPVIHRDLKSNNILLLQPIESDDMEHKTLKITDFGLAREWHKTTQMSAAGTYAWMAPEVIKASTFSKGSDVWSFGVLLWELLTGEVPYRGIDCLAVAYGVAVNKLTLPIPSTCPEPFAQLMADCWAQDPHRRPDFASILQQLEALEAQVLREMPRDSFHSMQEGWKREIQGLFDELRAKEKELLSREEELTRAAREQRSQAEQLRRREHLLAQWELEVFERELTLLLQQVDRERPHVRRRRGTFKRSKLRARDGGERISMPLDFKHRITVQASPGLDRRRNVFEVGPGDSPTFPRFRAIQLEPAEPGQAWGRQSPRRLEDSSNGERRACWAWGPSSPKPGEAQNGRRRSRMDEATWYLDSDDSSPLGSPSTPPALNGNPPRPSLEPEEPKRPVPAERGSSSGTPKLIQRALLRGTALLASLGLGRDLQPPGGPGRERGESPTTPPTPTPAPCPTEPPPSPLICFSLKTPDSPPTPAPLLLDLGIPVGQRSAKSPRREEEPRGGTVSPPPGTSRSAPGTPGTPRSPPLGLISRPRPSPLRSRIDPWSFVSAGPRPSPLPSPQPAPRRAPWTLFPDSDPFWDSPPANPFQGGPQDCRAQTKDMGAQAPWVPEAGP
T1 sequence (P80192 whole entry): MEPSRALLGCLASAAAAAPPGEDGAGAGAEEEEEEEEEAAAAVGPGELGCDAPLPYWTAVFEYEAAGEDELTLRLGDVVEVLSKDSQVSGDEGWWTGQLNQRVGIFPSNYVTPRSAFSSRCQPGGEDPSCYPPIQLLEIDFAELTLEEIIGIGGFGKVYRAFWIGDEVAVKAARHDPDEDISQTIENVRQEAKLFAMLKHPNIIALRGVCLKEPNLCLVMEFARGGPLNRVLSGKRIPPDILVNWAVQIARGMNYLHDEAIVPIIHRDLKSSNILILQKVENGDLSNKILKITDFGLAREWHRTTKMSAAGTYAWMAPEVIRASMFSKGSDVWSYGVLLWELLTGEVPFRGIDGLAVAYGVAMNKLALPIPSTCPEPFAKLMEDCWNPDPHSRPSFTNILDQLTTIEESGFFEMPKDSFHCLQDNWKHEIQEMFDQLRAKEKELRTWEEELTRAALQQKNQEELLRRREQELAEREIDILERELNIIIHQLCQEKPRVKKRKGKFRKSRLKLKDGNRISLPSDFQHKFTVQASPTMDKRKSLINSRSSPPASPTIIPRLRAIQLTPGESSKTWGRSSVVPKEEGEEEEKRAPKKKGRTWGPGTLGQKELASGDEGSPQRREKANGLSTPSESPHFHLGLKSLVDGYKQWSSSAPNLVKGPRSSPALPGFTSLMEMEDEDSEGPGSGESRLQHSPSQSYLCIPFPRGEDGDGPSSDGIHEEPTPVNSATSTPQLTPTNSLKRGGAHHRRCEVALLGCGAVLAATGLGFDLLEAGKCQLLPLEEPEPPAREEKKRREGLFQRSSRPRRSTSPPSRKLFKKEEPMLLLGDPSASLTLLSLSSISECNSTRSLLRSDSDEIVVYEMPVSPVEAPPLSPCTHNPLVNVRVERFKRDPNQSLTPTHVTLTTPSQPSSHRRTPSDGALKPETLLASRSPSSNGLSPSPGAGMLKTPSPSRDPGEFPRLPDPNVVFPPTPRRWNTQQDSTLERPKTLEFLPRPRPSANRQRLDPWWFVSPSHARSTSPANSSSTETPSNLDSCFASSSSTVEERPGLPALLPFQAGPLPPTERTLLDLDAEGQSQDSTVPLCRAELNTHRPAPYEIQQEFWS
Chain of HGK/MAP4K4 (O95819 whole entry): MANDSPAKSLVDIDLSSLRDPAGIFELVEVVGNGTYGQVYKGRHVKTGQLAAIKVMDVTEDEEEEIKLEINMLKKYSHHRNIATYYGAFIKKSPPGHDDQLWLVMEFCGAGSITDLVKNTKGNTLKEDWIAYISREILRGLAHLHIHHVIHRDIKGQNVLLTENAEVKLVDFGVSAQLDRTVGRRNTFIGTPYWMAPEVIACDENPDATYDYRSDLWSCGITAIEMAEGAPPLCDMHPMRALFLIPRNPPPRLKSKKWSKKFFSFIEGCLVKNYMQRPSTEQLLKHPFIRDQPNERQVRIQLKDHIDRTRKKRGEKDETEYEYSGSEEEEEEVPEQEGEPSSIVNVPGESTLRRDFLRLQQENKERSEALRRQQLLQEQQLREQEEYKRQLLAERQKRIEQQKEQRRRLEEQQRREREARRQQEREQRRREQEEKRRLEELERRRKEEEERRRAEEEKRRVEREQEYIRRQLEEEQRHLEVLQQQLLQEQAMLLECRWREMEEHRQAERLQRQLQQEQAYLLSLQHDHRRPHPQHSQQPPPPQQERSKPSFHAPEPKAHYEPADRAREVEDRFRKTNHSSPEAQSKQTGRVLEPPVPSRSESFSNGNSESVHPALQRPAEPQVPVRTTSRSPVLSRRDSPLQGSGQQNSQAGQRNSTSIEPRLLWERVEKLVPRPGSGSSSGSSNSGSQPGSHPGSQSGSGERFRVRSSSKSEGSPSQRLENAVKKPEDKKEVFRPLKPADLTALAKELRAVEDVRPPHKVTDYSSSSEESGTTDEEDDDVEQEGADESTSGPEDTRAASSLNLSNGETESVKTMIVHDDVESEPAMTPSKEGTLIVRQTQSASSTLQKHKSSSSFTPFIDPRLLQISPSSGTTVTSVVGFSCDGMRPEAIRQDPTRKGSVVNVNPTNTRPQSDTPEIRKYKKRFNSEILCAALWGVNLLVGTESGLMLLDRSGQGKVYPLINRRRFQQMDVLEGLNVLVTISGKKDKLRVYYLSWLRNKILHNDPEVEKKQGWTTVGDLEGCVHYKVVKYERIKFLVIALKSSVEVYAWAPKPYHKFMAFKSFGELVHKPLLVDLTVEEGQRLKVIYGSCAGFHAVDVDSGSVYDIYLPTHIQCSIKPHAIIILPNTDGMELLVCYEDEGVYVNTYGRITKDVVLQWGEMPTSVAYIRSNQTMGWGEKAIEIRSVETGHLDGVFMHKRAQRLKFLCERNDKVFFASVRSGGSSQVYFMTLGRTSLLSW

For the molecule `COC(=O)Nc1ccc(-c2c[nH]c3ncc(-c4ccc(CN5CCN(C)CC5)cc4)cc23)cc1` [Compound 7an, Methyl (4-(5-(4-((4-methylpiperazin-1-yl)methyl)phenyl)-1H-pyrrolo[2,3-b]pyridin-3-yl)phenyl)carbamate], in experiment [1] (setting [2]), the EC50 (commonly the concentration at which the effect is half-maximal) is 534 nM. In experiment [1] (Homo sapiens, Neuron), the viability at 1 µM is 75% and the Emax was 100%. Moreover, the remaining activity at 0.1 µM on MLK1/MAP3K9 (setting [3]) was determined as 68.7%. For the same molecule, the remaining activity at 0.1 µM at MLK1/MAP3K9 (setting [4]) was 65.4%. Also, on HGK/MAP4K4, the remaining activity at 0.025 µM came to 39.9% and the remaining activity at 0.1 µM worked out at 10.2%. On MLK3/MAP3K11, the “% Enzyme Activity Remaining (relative to DMSO controls), MLK3/MAP3K11, Data 1” value came out at 65.74% and the “% Enzyme Activity Remaining (relative to DMSO controls), MLK3/MAP3K11, Data 2” value is recorded as 63.06%.
`CNC(=O)Nc1ccc(-c2c[nH]c3ncc(-c4ccc(CN5CCN(C)CC5)cc4)cc23)cc1` [Compound 7am, 1-Methyl-3-(4-(5-(4-((4-methylpiperazin-1-yl)methyl)phenyl)-1H-pyrrolo[2,3-b]pyridin-3-yl)phenyl)urea]: in experiment [1] (setting [2]), the EC50 is 948 nM. Besides, in experiment [1] (Homo sapiens, Neuron), the viability at 1 µM was 80% and the Emax turned out to be 122%. Besides, the remaining activity at 0.1 µM on MLK1/MAP3K9 (setting [3]) was determined as 51%. For the same molecule, the remaining activity at 0.1 µM on MLK1/MAP3K9 (setting [4]) turned out to be 51.2%. For the same molecule, at HGK/MAP4K4, the remaining activity at 0.025 µM was 56% and the remaining activity at 0.1 µM was 17.7%. Besides, at MLK3/MAP3K11, the “% Enzyme Activity Remaining (relative to DMSO controls), MLK3/MAP3K11, Data 1” value was 49.77% and the “% Enzyme Activity Remaining (relative to DMSO controls), MLK3/MAP3K11, Data 2” value was determined as 46.17%.
Regarding `CN1CCN(Cc2ccc(-c3cnc4[nH]cc(-c5cccc6c5oc5ccccc56)c4c3)cc2)CC1` [Compound 7c, 3-(Dibenzo[b,d]furan-4-yl)-5-(4-((4-methylpiperazin-1-yl)methyl)phenyl)-1H-pyrrolo[2,3-b]pyridine], the EC50 entry in experiment [1] is on record as “Ambiguous”. Besides, in experiment [1] (Homo sapiens, Neuron), the viability at 1 µM was 7.84% and the Emax amounted to 10.4%. The remaining activity at 0.1 µM on MLK1/MAP3K9 (setting [3]) came out at 88.3%. Also, the remaining activity at 0.1 µM at MLK1/MAP3K9 (setting [4]) was found to be 86.8%. Moreover, at HGK/MAP4K4, the remaining activity at 0.025 µM amounted to 99.3% and the remaining activity at 0.1 µM is 81.6%. Also, on MLK3/MAP3K11, the “% Enzyme Activity Remaining (relative to DMSO controls), MLK3/MAP3K11, Data 1” value is reported as 90.01% and the “% Enzyme Activity Remaining (relative to DMSO controls), MLK3/MAP3K11, Data 2” value is reported as 93.44%.
As for `CN1CCN(Cc2ccc(-c3cnc4[nH]cc(-c5cccc(N)c5)c4c3)cc2)CC1` [Compound 7h, 3-(5-(4-((4-Methylpiperazin-1-yl)methyl)phenyl)-1H-pyrrolo[2,3-b]pyridin-3-yl)aniline], in experiment [1] (setting [2]), the EC50 stood at 177 nM. Further, in experiment [1] (Homo sapiens, Neuron), the viability at 1 µM amounted to 106% and the Emax turned out to be 115%. For the same molecule, at MLK1/MAP3K9 (setting [3]), the remaining activity at 0.1 µM was 48.8%. For the same molecule, the remaining activity at 0.1 µM on MLK1/MAP3K9 (setting [4]) was found to be 43.2%. On HGK/MAP4K4, the remaining activity at 0.025 µM was 98.8% and the remaining activity at 0.1 µM is 87.4%. Also, on MLK3/MAP3K11, the “% Enzyme Activity Remaining (relative to DMSO controls), MLK3/MAP3K11, Data 1” value is given as 62.91% and the “% Enzyme Activity Remaining (relative to DMSO controls), MLK3/MAP3K11, Data 2” value was 63.31%.
As for `COC(=O)Nc1cccc(-c2c[nH]c3ncc(-c4ccc(CN5CCN(C)CC5)cc4)cc23)c1` [Compound 7al, Methyl (3-(5-(4-((4-methylpiperazin-1-yl)methyl)phenyl)-1H-pyrrolo[2,3-b]pyridin-3-yl)phenyl)carbamate], the EC50 in experiment [1] (setting [2]) was determined as 670 nM. For the same molecule, in experiment [1] (Homo sapiens, Neuron), the Emax is 113%. Also, the remaining activity at 0.1 µM on MLK1/MAP3K9 (setting [3]) was determined as 33.4%; on MLK1/MAP3K9 (setting [4]), 32.7%; on HGK/MAP4K4, 6.76%. For the same molecule, the remaining activity at 0.025 µM on HGK/MAP4K4 was determined as 33.8%. The “% Enzyme Activity Remaining (relative to DMSO controls), MLK3/MAP3K11, Data 1” value at MLK3/MAP3K11 is on record as 32.96%. For the same molecule, at MLK3/MAP3K11, the “% Enzyme Activity Remaining (relative to DMSO controls), MLK3/MAP3K11, Data 2” value came to 30.90%.
Consider `CN1CCN(Cc2ccc(-c3cnc4[nH]cc(-c5ccc6cnn(C)c6c5)c4c3)cc2)CC1` [Compound 7ag, 1-Methyl-6-(5-(4-((4-methylpiperazin-1-yl)methyl)phenyl)-1H-pyrrolo[2,3-b]pyridin-3-yl)-1H-indazole], for which the EC50 in experiment [1] (setting [2]) stood at 418 nM. In experiment [1] (Homo sapiens, Neuron), the viability at 1 µM stood at 73.3% and the Emax turned out to be 88%. For the same molecule, on MLK1/MAP3K9 (setting [3]), the remaining activity at 0.1 µM is 50.9%. The remaining activity at 0.1 µM on MLK1/MAP3K9 (setting [4]) was found to be 50%. For the same molecule, on HGK/MAP4K4, the remaining activity at 0.025 µM came out at 32.5% and the remaining activity at 0.1 µM was 7.91%. At MLK3/MAP3K11, the “% Enzyme Activity Remaining (relative to DMSO controls), MLK3/MAP3K11, Data 1” value came to 54.67% and the “% Enzyme Activity Remaining (relative to DMSO controls), MLK3/MAP3K11, Data 2” value is reported as 52.80%.
Take `CN1CCN(Cc2ccc(-c3cnc4[nH]cc(-c5cccc(NC(=O)NCc6ccco6)c5)c4c3)cc2)CC1` [Compound 7ay, 1-(Furan-2-ylmethyl)-3-(3-(5-(4-((4-methylpiperazin-1-yl)methyl)phenyl)-1H-pyrrolo[2,3-b]pyridin-3-yl)phenyl)urea]: in experiment [1] (setting [2]), the EC50 was determined as 91.2 nM. Moreover, in experiment [1] (Homo sapiens, Neuron), the viability at 1 µM stood at 4.58% and the Emax was 9.29%. The remaining activity at 0.1 µM at MLK1/MAP3K9 (setting [3]) was found to be 88.5%. Moreover, on MLK1/MAP3K9 (setting [4]), the remaining activity at 0.1 µM amounted to 91.8%. Further, at HGK/MAP4K4, the remaining activity at 0.025 µM was determined as 93.8% and the remaining activity at 0.1 µM is 79%. In addition, at MLK3/MAP3K11, the “% Enzyme Activity Remaining (relative to DMSO controls), MLK3/MAP3K11, Data 1” value worked out at 84.43% and the “% Enzyme Activity Remaining (relative to DMSO controls), MLK3/MAP3K11, Data 2” value is listed as 83.57%.
`CN1CCN(Cc2ccc(-c3cnc4[nH]cc(-c5cccc(OCc6ccccc6)c5)c4c3)cc2)CC1` [Compound 7ar, 3-(3-(Benzyloxy)phenyl)-5-(4-((4-methylpiperazin-1-yl)methyl)phenyl)-1H-pyrrolo[2,3-b]pyridine]: the EC50 in experiment [1] (setting [2]) worked out at 583 nM. Besides, in experiment [1] (Homo sapiens, Neuron), the viability at 1 µM amounted to 37.4% and the Emax is 37.4%. The remaining activity at 0.1 µM at MLK1/MAP3K9 (setting [3]) was found to be 70.1%. The remaining activity at 0.1 µM at MLK1/MAP3K9 (setting [4]) is 68%. Further, on HGK/MAP4K4, the remaining activity at 0.025 µM worked out at 55.5% and the remaining activity at 0.1 µM is 27.4%. For the same molecule, on MLK3/MAP3K11, the “% Enzyme Activity Remaining (relative to DMSO controls), MLK3/MAP3K11, Data 1” value was determined as 44.17% and the “% Enzyme Activity Remaining (relative to DMSO controls), MLK3/MAP3K11, Data 2” value came to 45.09%.
As for `CN1CCN(Cc2ccc(-c3cnc4[nH]cc(-c5ccc(F)c(C(=O)O)c5)c4c3)cc2)CC1` [Compound 7i, 2-Fluoro-5-(5-(4-((4-methylpiperazin-1-yl)methyl)phenyl)-1H-pyrrolo[2,3-b]pyridin-3-yl)benzoic acid], in experiment [1], the EC50 result is recorded as “Ambiguous”. Moreover, in experiment [1] (Homo sapiens, Neuron), the viability at 1 µM was determined as 7.82% and the Emax is 13.3%. The remaining activity at 0.1 µM on MLK1/MAP3K9 (setting [3]) was 80.2%. In addition, the remaining activity at 0.1 µM on MLK1/MAP3K9 (setting [4]) came out at 79.4%. Moreover, on HGK/MAP4K4, the remaining activity at 0.025 µM worked out at 85.3% and the remaining activity at 0.1 µM turned out to be 54.6%. At MLK3/MAP3K11, the “% Enzyme Activity Remaining (relative to DMSO controls), MLK3/MAP3K11, Data 1” value came to 57.91% and the “% Enzyme Activity Remaining (relative to DMSO controls), MLK3/MAP3K11, Data 2” value stood at 50.75%.
In the case of `Cc1cc(-c2c[nH]c3ncc(-c4ccc(CN5CCN(C)CC5)cc4)cc23)cnc1N` [Compound 7l, 3-Methyl-5-(5-(4-((4-methylpiperazin-1-yl)methyl)phenyl)-1H-pyrrolo[2,3-b]pyridin-3-yl)pyridin-2-amine], the EC50 in experiment [1] (setting [2]) worked out at 177 nM. In experiment [1] (Homo sapiens, Neuron), the viability at 1 µM worked out at 106% and the Emax was determined as 106%. Also, the remaining activity at 0.1 µM at MLK1/MAP3K9 (setting [3]) was determined as 53.2%. For the same molecule, the remaining activity at 0.1 µM at MLK1/MAP3K9 (setting [4]) is 52.4%. Also, at HGK/MAP4K4, the remaining activity at 0.025 µM was found to be 27% and the remaining activity at 0.1 µM was 5.45%. For the same molecule, on MLK3/MAP3K11, the “% Enzyme Activity Remaining (relative to DMSO controls), MLK3/MAP3K11, Data 1” value was found to be 58.50% and the “% Enzyme Activity Remaining (relative to DMSO controls), MLK3/MAP3K11, Data 2” value amounted to 57.04%.
For `CC(=O)c1ccc(-c2c[nH]c3ncc(-c4ccc(CN5CCN(C)CC5)cc4)cc23)cc1` [Compound 7x, 1-(4-(5-(4-((4-Methylpiperazin-1-yl)methyl)phenyl)-1H-pyrrolo[2,3-b]pyridin-3-yl)phenyl)ethan-1-one], the EC50 in experiment [1] (setting [2]) turned out to be 322 nM. Besides, in experiment [1] (Homo sapiens, Neuron), the viability at 1 µM was 78.1% and the Emax was 78.1%. On MLK1/MAP3K9 (setting [3]), the remaining activity at 0.1 µM was 65.8%. In addition, on MLK1/MAP3K9 (setting [4]), the remaining activity at 0.1 µM is 67.7%. On HGK/MAP4K4, the remaining activity at 0.025 µM came out at 30.8% and the remaining activity at 0.1 µM was 7.1%. Moreover, on MLK3/MAP3K11, the “% Enzyme Activity Remaining (relative to DMSO controls), MLK3/MAP3K11, Data 1” value was determined as 67.84% and the “% Enzyme Activity Remaining (relative to DMSO controls), MLK3/MAP3K11, Data 2” value is 65.08%.

(Values after patent publication US12227500B2, “Substituted pyrrolo[2,3-b]pyridines for suppressing toxic endoplasmic reticulum stress” (THE TRUSTEES OF COLUMBIA UNIVERSITY IN THE CITY OF NEW YORK, priority 2018, dated 2025).)
